Laboratory results taken from US4997454A, “Method for making uniformly-sized particles from insoluble compounds” (The University of Rochester, priority 1989, dated 1991).
≈ marks a conversion by molar mass, not a printed value.

solubility in water	solubility (solubility; absolute ethanol, organic solvent or mixture) [µg/mL]	solubility (solubility; water) [µg/mL]	Structure (SMILES)
10^-5 M	–	–	CCOC(=O)c1c(I)cc(I)c(NC(=O)CCCCC(=O)Nc2c(I)cc(I)c(C(=O)OCC)c2I)c1I [IDE, iodipamide ethyl ester]
–	< 4	70 (≈ 257 µM)	O=C1NC(=O)[C@H]2[C@H]3C=C[C@@H]([C@@H]12)[C@@H]1[C@H]2C(=O)NC(=O)[C@H]2[C@H]31 [mitindomide]
